Experimental data taken from PubChem BioAssay AID256 (DTP/NCI, 2004).
Several values for one entry are separate records, joined by “and”; a condition that tells them apart may be missing. Identical values can stand only once. Inconclusive results and toxic doses are left out.

System: CD2F1 mice, L1210 leukemia ip, survival T/C
Experiment: NCI In Vivo Anticancer Drug Screen. Data for tumor model L1210 Leukemia (intraperitoneal) in CD2F1 (CDF1) mice
Settings: higher = longer survival
Procedure, shortened: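 Tumor-bearing mice (transplanted tumor) were split into treated and vehicle control groups, and the measured endpoint of each treated group was divided by that of its vehicle controls.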

[1] = endpoint: mean survival time, dose: 100.0 mg/kg/injection, schedule: Q04DX002 (ip), vehicle: saline with Tween-80

Question: How did the T/C (endpoint: mean survival time, dose: 12.5 mg/kg/injection, schedule: Q01DX009 (ip), vehicle: saline) turn out when `O=c1[nH]c(=O)c2nc(-c3cccnc3)cnc2[nH]1` was run?
Answer: 98 % of control and 103 % of control

Question: What about the T/C (endpoint: mean survival time, dose: 25.0 mg/kg/injection, schedule: Q01DX009 (ip), vehicle: saline) of the same compound?
Answer: 101 % of control and 102 % of control

Question: What about the T/C (endpoint: mean survival time, dose: 50.0 mg/kg/injection, schedule: Q01DX009 (ip), vehicle: saline) of the same compound?
Answer: 93 % of control and 104 % of control

Question: And the T/C (endpoint: mean survival time, dose: 100.0 mg/kg/injection, schedule: Q01DX009 (ip), vehicle: saline)?
Answer: 98 % of control and 110 % of control

Question: And the T/C (endpoint: mean survival time, dose: 200.0 mg/kg/injection, schedule: Q01DX009 (ip), vehicle: saline)?
Answer: 101 % of control and 110 % of control

Question: And the T/C (endpoint: mean survival time, dose: 400.0 mg/kg/injection, schedule: Q01DX009 (ip), vehicle: saline)?
Answer: 114 % of control and 102 % of control

Question: Which results are given for `COc1c2c(c(OC)c3c(OC)c4ccccc4c(OC)c13)CC(O)CC2` (stereo unspecified)?
Answer: T/C (endpoint: mean survival time, dose: 12.5 mg/kg/injection, schedule: Q01DX005 (ip), vehicle: Klucel (hydroxypropylcellulose) (HPC)): 92 % of control; T/C (endpoint: mean survival time, dose: 25.0 mg/kg/injection, schedule: Q01DX005 (ip), vehicle: Klucel (hydroxypropylcellulose) (HPC)): 90 % of control; T/C (endpoint: mean survival time, dose: 50.0 mg/kg/injection, schedule: Q01DX005 (ip), vehicle: Klucel (hydroxypropylcellulose) (HPC)): 97 % of control; T/C (endpoint: mean survival time, dose: 100.0 mg/kg/injection, schedule: Q01DX005 (ip), vehicle: Klucel (hydroxypropylcellulose) (HPC)): 92 % of control; T/C (endpoint: mean survival time, dose: 200.0 mg/kg/injection, schedule: Q01DX005 (ip), vehicle: Klucel (hydroxypropylcellulose) (HPC)): 103 % of control; T/C (endpoint: mean survival time, dose: 400.0 mg/kg/injection, schedule: Q01DX005 (ip), vehicle: Klucel (hydroxypropylcellulose) (HPC)): 87 % of control

Question: Which results are given for `CCCC(=O)Nc1ccccc1`?
Answer: T/C (endpoint: mean survival time, dose: 100.0 mg/kg/injection, schedule: Q01DX001 (ip), vehicle: saline with Tween-80): 96 % of control; T/C (endpoint: mean survival time, dose: 100.0 mg/kg/injection, schedule: Q01DX009 (ip), vehicle: saline with Tween-80): 102 % of control; T/C (endpoint: mean survival time, dose: 200.0 mg/kg/injection, schedule: Q01DX001 (ip), vehicle: saline with Tween-80): 95 % of control; T/C (endpoint: mean survival time, dose: 200.0 mg/kg/injection, schedule: Q01DX009 (ip), vehicle: saline with Tween-80): 102 % of control; T/C (endpoint: mean survival time, dose: 400.0 mg/kg/injection, schedule: Q01DX001 (ip), vehicle: saline with Tween-80): 98 % of control; T/C (endpoint: mean survival time, dose: 400.0 mg/kg/injection, schedule: Q01DX009 (ip), vehicle: saline with Tween-80): 112 % of control

Question: What does the source list for `Cc1cc(C)c(NC2=NCCS2)cc1C`?
Answer: T/C (endpoint: mean survival time, dose: 25.0 mg/kg/injection, schedule: Q04DX002 (ip), vehicle: saline with Tween-80): 101 % of control; T/C (endpoint: mean survival time, dose: 50.0 mg/kg/injection, schedule: Q04DX002 (ip), vehicle: saline with Tween-80): 104 % of control; T/C [1]: 101 % of control

Question: `CSc1ncnc2c1nnn2C1OC(COC(=O)c2ccccc2)C(OC(=O)c2ccccc2)C1OC(=O)c1ccccc1` (stereo unspecified) was tested. Which T/C (endpoint: median survival time, dose: 12.5 mg/kg/injection, schedule: Q01DX005 (ip), vehicle: Klucel (hydroxypropylcellulose) (HPC)) did it give?
Answer: 94 % of control

Question: And the T/C (endpoint: median survival time, dose: 25.0 mg/kg/injection, schedule: Q01DX005 (ip), vehicle: Klucel (hydroxypropylcellulose) (HPC))?
Answer: 104 % of control

Question: What about the T/C (endpoint: median survival time, dose: 50.0 mg/kg/injection, schedule: Q01DX005 (ip), vehicle: Klucel (hydroxypropylcellulose) (HPC)) of the same compound?
Answer: 116 % of control and 123 % of control

Question: What about the T/C (endpoint: median survival time, dose: 100.0 mg/kg/injection, schedule: Q01DX005 (ip), vehicle: Klucel (hydroxypropylcellulose) (HPC)) of the same compound?
Answer: 116 % of control

Question: And the T/C (endpoint: median survival time, dose: 400.0 mg/kg/injection, schedule: Q01DX005 (ip), vehicle: Klucel (hydroxypropylcellulose) (HPC))?
Answer: 164 % of control

Question: What does the source list for `O=c1[nH]c(=O)n(C2OC(CO)C(O)C2O)cc1Br` (stereo unspecified)?
Answer: T/C [1]: 109 % of control; T/C (endpoint: mean survival time, dose: 200.0 mg/kg/injection, schedule: Q04DX002 (ip), vehicle: saline with Tween-80): 101 % of control; T/C (endpoint: mean survival time, dose: 400.0 mg/kg/injection, schedule: Q04DX002 (ip), vehicle: saline with Tween-80): 101 % of control

Question: What does the source list for `COS(=O)(=O)O`?
Answer: T/C (endpoint: mean survival time, dose: 100.0 mg/kg/injection, schedule: Q04DX003 (ip), vehicle: saline): 96 % of control; T/C (endpoint: mean survival time, dose: 200.0 mg/kg/injection, schedule: Q04DX003 (ip), vehicle: saline): 96 % of control

Question: Which results are given for `O=C(Nc1c[nH]c(=O)[nH]c1=O)C(Cl)Cl`?
Answer: T/C (endpoint: mean survival time, dose: 100.0 mg/kg/injection, schedule: Q04DX003 (ip), vehicle: other): 109 % of control; T/C (endpoint: mean survival time, dose: 200.0 mg/kg/injection, schedule: Q04DX003 (ip), vehicle: other): 94 % of control

Question: How did the T/C (endpoint: mean survival time, dose: 0.47 mg/kg/injection, schedule: Q01DX009 (ip), vehicle: saline with Tween-80) turn out when `[Cl][Pt+2][Br].[NH-]CC[NH-]` was run?
Answer: 115 % of control

Question: What about the T/C (endpoint: mean survival time, dose: 0.95 mg/kg/injection, schedule: Q01DX009 (ip), vehicle: saline with Tween-80) of the same compound?
Answer: 105 % of control

Question: And the T/C (endpoint: mean survival time, dose: 1.9 mg/kg/injection, schedule: Q01DX009 (ip), vehicle: saline with Tween-80)?
Answer: 110 % of control

Question: What about the T/C (endpoint: mean survival time, dose: 3.8 mg/kg/injection, schedule: Q04DX003 (ip), vehicle: saline with Tween-80) of the same compound?
Answer: 101 % of control

Question: What about the T/C (endpoint: mean survival time, dose: 7.5 mg/kg/injection, schedule: Q01DX009 (ip), vehicle: saline with Tween-80) of the same compound?
Answer: 94 % of control

Question: What about the T/C (endpoint: mean survival time, dose: 7.5 mg/kg/injection, schedule: Q04DX003 (ip), vehicle: saline with Tween-80) of the same compound?
Answer: 121 % of control

Question: What does the source list for `CCOP(=O)(NCc1ccco1)OCC`?
Answer: T/C (endpoint: mean survival time, dose: 50.0 mg/kg/injection, schedule: Q01DX001 (ip), vehicle: carboxymethylcellulose (CMC)): 106 % of control; T/C (endpoint: mean survival time, dose: 100.0 mg/kg/injection, schedule: Q01DX001 (ip), vehicle: carboxymethylcellulose (CMC)): 112 % of control
